According to ChEMBL document CHEMBL4038308, “Lipophosphonoxins II: Design, Synthesis, and Properties of Novel Broad Spectrum Antibacterial Agents” (J Med Chem, 2017):
Values after ≈ are worked out from the molar mass of the structure shown. Values belong to the compound of their own block, whether it stands above or below them.

Key:
Pseudomonas aeruginosa = assay: microbe, parasite or virus in culture; settings: CCM 3955, 24 h
Lipid bilayer [1] = assay: Binding affinity to DOPG large unilamellar vesicle assessed as increase in fluorescence intensity at 5 mg/L after 10 mins by fluorescence assay relative to control
Lipid bilayer [2] = assay: Binding affinity to DOPG large unilamellar vesicle assessed as Stern-Volmer quenching constant after 10 mins in presence of potassium iodide by fluorescence assay (reference value: 47.22 +/- 1.58 no_unit)
Lipid bilayer [3] = assay: Binding affinity to DOPG large unilamellar vesicle assessed as blue shift in emission maximum at 5 mg/L after 10 mins by fluorescence assay relative to control
J774.A1 = assay: Cytotoxicity against mouse J774A.1 cells assessed as damage to cell membrane by measuring propidium iodide intake at 5 uM by spectrofluorometric analysis; type: cell-based; settings: j774.a1, 5 µM

Compound: O=C(O)c1cn(C2CC2)c2cc(N3CCNCC3)c(F)cc2c1=O [CIPROFLOXACIN]
MIC (Pseudomonas aeruginosa): 4 µg/mL (≈ 12.1 µM)

fold change (FC) (Lipid bilayer [1]): 3.5
KSV (Lipid bilayer [2]): 0.97
Activity (Lipid bilayer [3]): 25 nm
Compound: CCCCCCCCCCCCCCOP(=O)(CCN(CCCN)CCCN)OC[C@H]1O[C@@H](n2cc(-c3ccco3)c(=O)[nH]c2=O)[C@H](O)[C@@H]1O (stereo not given in full)

Compound: CC[C@H](C)[C@H](NC(=O)CN)C(=O)NCC(=O)N[C@@H](C)C(=O)N[C@H](C(=O)N[C@@H](CC(C)C)C(=O)N[C@@H](CCCCN)C(=O)N[C@H](C(=O)N[C@@H](CC(C)C)C(=O)N[C@H](C(=O)N[C@H](C(=O)NCC(=O)N[C@@H](CC(C)C)C(=O)N1CCC[C@H]1C(=O)N[C@@H](C)C(=O)N[C@@H](CC(C)C)C(=O)N[C@H](C(=O)N[C@@H](CO)C(=O)N[C@@H](Cc1c[nH]c2ccccc12)C(=O)N[C@H](C(=O)N[C@@H](CCCCN)C(=O)N[C@@H](CCCNC(=N)N)C(=O)N[C@@H](CCCCN)C(=O)N[C@@H](CCCNC(=N)N)C(=O)N[C@@H](CCC(N)=O)C(=O)N[C@@H](CCC(N)=O)C(N)=O)[C@@H](C)CC)[C@@H](C)CC)[C@@H](C)O)[C@@H](C)O)C(C)C)C(C)C [MELITTIN]
Activity (J774.A1): Toxic
